# Source: patent US8680159B2, “Bradykinin 1 receptor modulating compounds” (Gruenenthal GmbH, priority 2010, dated 2014)
# Experiments:
# [1] = target: T1, human B1R receptor (CHO K1 cells stably transfected with the human B1R gene) (Homo sapiens, UniProt P46663); assay: Functional study on the bradykinin receptor 1 (B1R), Ca2+ fluorescence (Fluo-4) FLIPR/Novostar assay, hB1R cells; format: cell-based; details: CHO-K1, read-out: % inhibition (human B1R) at 10 μM
# T1 construct: expressed in transfected cells; host or cells: CHO K1 cells (Chinese hamster ovary), stably transfected
# T1 sequence (P46663 1-353): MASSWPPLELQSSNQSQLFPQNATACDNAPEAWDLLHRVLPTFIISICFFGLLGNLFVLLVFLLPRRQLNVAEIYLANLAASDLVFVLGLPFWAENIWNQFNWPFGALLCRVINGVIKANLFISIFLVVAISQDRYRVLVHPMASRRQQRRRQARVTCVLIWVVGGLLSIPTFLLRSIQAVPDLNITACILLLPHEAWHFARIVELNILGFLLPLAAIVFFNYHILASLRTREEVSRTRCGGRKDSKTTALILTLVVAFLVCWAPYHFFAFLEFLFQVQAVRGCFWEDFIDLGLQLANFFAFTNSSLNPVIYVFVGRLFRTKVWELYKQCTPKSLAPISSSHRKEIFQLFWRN
# Procedure, shortened: (§1)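 Stably transfected CHO K1 cells carrying human or rat B1R were Fluo-4 loaded and Ca2+ fluorescence read by FLIPR or Novostar. Compounds were added first at 10 μM for % activation, then the EC80 agonist was applied after 6-20 min (human: Lys-Des-Arg9-bradykinin; rat: Des-Arg9-bradykinin). % inhibition is relative to maximum achievable inhibition, and IC50 comes from concentration series.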
# [2] = target: T2, B1R receptor of the rat (CHO K1 cells stably transfected with the B1R gene of the rat) (Rattus norvegicus, UniProt P97583); assay: Functional study on the bradykinin receptor 1 (B1R), Ca2+ fluorescence (Fluo-4) FLIPR/Novostar assay, rB1R cells; format: cell-based; details: CHO-K1, 10 μM, read-out: % inhibition (rat B1R) at 10 μM
# T2 construct: expressed in transfected cells; host or cells: CHO K1 cells (Chinese hamster ovary), stably transfected
# T2 sequence (P97583 1-337): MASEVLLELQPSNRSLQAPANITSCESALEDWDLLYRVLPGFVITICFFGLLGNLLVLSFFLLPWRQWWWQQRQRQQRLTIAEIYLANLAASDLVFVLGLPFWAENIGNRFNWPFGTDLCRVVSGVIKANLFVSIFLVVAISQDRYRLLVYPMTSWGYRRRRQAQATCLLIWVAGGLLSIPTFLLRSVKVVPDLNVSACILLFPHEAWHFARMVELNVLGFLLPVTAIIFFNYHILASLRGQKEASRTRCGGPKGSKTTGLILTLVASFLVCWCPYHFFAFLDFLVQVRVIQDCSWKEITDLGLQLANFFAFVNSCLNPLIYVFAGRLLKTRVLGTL
# Procedure, shortened: as §1
Structure (SMILES),inhibition at 10 µM [1],inhibition at 10 µM [2]
"CCN(C(=O)c1ccc2c(c1)[C@H](NC(=O)c1ccccc1Cl)CC2)C1CCN(c2ccnc(C)c2)CC1 [Example H-79, (3R)-3-[(2-Chloro-benzoyl)amino]-N-ethyl-N-[1-(2-methyl-pyridin-4-yl)-piperidin-4-yl]-2,3-dihydro-1H-indene-5-carboxylic acid amide]",100%,110%
"CN(C(=O)c1cc(F)c2c(c1)[C@H](NC(=O)c1ccccc1Cl)CCO2)C1CCN(c2ccncc2)CC1 [Example H-80, (4R)-4-[(2-Chloro-benzoyl)amino]-8-fluoro-N-methyl-N-(1-pyridin-4-yl-piperidin-4-yl)-3,4-dihydro-2H-chromene-6-carboxylic acid amide]",100%,110%
"Cc1cc(N2CCC(N(C)C(=O)c3cc(F)c4c(c3)[C@H](NC(=O)c3ccccc3Cl)CCO4)CC2)nc(C)n1 [Example H-81, (4R)-4-[(2-Chloro-benzoyl)amino]-N-[1-(2,6-dimethyl-pyrimidin-4-yl)-piperidin-4-yl]-8-fluoro-N-methyl-3,4-dihydro-2H-chromene-6-carboxylic acid amide]",95%,109%
"CN(C(=O)c1ccc2c(c1)[C@H](NC(=O)C1CCc3ccccc31)CC2)C1CCN(c2ccncc2)CC1 (stereo partly drawn) [Example H-82, (3R)-3-(2,3-Dihydro-1H-inden-1-carbonylamino)-N-methyl-N-(1-pyridin-4-yl-piperidin-4-yl)-2,3-dihydro-1H-indene-5-carboxylic acid amide]",100%,112%
"CN(C(=O)c1ccc2c(c1)[C@H](NC(=O)c1cncc3ccccc13)CC2)C1CCN(c2ccncc2)CC1 [Example H-83, N-[(1R)-6-[Methyl-(1-pyridin-4-yl-piperidin-4-yl)-carbamoyl]-2,3-dihydro-1H-inden-1-yl]-isoquinoline-4-carboxylic acid amide]",100%,111%
"CN(C(=O)c1ccc2c(c1)[C@H](NC(=O)C1CCOc3ccccc31)CC2)C1CCN(c2ccncc2)CC1 (stereo partly drawn) [Example H-84, N-[(1R)-6-[Methyl-(1-pyridin-4-yl-piperidin-4-yl)-carbamoyl]-2,3-dihydro-1H-inden-1-yl]-3,4-dihydro-2H-chromene-4-carboxylic acid amide]",100%,103%
"Cc1cc(N2CCC(N(C)C(=O)c3ccc4c(c3)[C@H](NC(=O)CC(C)C)CC4)CC2)ccn1 [Example H-85, (3R)-N-Methyl-3-(3-methyl-butanoylamino)-N-[1-(2-methyl-pyridin-4-yl)-piperidin-4-yl]-2,3-dihydro-1H-indene-5-carboxylic acid amide]",100%,103%
"Cc1cc(N2CCC(N(C)C(=O)c3ccc4c(c3)[C@H](NC(=O)CC(C)C)CC4)CC2)nc(C)n1 [Example H-86, (3R)-N-[1-(2,6-Dimethyl-pyrimidin-4-yl)-piperidin-4-yl]-N-methyl-3-(3-methyl-butanoylamino)-2,3-dihydro-1H-indene-5-carboxylic acid amide]",100%,98%
"CN(C(=O)c1cc(F)c2c(c1)[C@H](N1Cc3cccc(Cl)c3C1=O)CCO2)C1CCN(c2ccncc2)CC1 [Example H-87, (4R)-4-(4-Chloro-3-oxo-1,2-dihydro-isoindol-2-yl)-8-fluoro-N-methyl-N-(1-pyridin-4-yl-piperidin-4-yl)-3,4-dihydro-2H-chromene-6-carboxylic acid amide]",39%,104%
"Cc1cc(N2CCC(N(C)C(=O)c3ccc4c(c3)[C@H](NC(=O)C3CCOCC3)CC4)CC2)ccn1 [Example H-88, N-[(1R)-6-[Methyl-[1-(2-methyl-pyridin-4-yl)-piperidin-4-yl]-carbamoyl]-2,3-dihydro-1H-inden-1-yl]-tetrahydro-pyran-4-carboxylic acid amide]",96%,104%
